Columns and labels:
elastic cartilage = assay: Elastic cartilage regeneration in rabbit ear punch wounds (stained cross sections, day 45); assay type: in vivo; details: for average distance between opposing cartilage endplates: original 8 mm wound margin, saline 6 mm; for average cartilage growth upon closure of the wound: saline 2 mm; for average cartilage tissue regrowth: saline about 25%; for cartilage regeneration by histology: versus control
Procedure: Compounds of Formula (I) were tested and compared to saline control in elastic cartilage regeneration tests. Rabbit ears were punched through and through with an 8 mm punch. 4 holes were punched in each ear of the specimen (four positions L1, L2, L3, and L4 in the left ear and four positions R5, R6, R7, and R8 in right ear). Saline was applied via a spray on the control specimen, Compound 8 was applied via a phospholipid spray on another specimen, and Compound 18 was applied via a phospholipid spray on yet another specimen. The phospholipid spray contained compound (45 mg), butylene glycol (2 mL), polysorbate 20 (2 mL), phosphotidyl choline (0.5 g), ethanol (2 mL), and ultra pure water (40 mL).
At day 45, the tests were stopped and the tissue was processed. An embed cut was made across the center point of the healed wounds in each site (FIG. 7, top). A slide was used to obtain sectioned tissue sample for staining and imaging (FIG. 7, bottom).
After staining with either Safronin O or Trichrome Blue, the distance between the opposing cartilage endplates was measured. From the original 8 mm wound margin distance, the saline control averaged 6 mm of distance between opposing cartilage endplates (FIG. 8), or 2 mm of average cartilage growth upon closure of the wound (about 25% average cartilage tissue regrowth). Compounds of Formula (I) (Compound 8 and Compound 18) provided about 2-3 mm average distance between opposing cartilage endplates (FIG. 8), or […] of average cartilage growth upon closure of the wound (about 68-75% average cartilage tissue regrowth).
FIGS. 9-11 display the original 8 mm wound margin (top, two vertical gray lines) and in an inset (bottom left, curved gray line). FIGS. 9-11 show expanded views of the cartilage regeneration site where chondrocytes are newly formed within the wound margin. Comparing FIG. 10 (Compound 8) and FIG. 11 (Compound 18) to FIG. 9 (control), cartilage regeneration using compounds of Formula (I) was confirmed.

healed wound sites = assay: Physical properties of healed wounds, summary; assay type: in vivo, porcine; details: compared to the control
Procedure: (§1) Additional tests were performed including elasticity (Table 12); max force (Table 13); tensile strength (strain) (Table 14); energy peak (Table 15); rete-ridge formation; and collagen organization (plane polarized light) (FIG. 24) of the healed wound sites, described as follows.
Wounds treated with 0.9% saline provided the least wound healing integrity for elasticity, max force, strain, and energy peak parameters.

closed excisional wounds = assay: Collagen organization (plane polarized light) of closed excisional wounds; assay type: in vivo, Yucatan Miniature Swine
Procedure: as §1
Regarding collagen organization, the number of wounds indicating collagen infiltration into the scar were identified by polarized imaging (plane polarized light).

[1] = test system: C. acnes (derived from ATCC ® 11827 ™); assay: Bacteriostasis, log reduction; assay type: cell-based

Compound: CC(C)(OCCO)c1ccc(-c2nc3c(c(=O)[nH]2)CSCC3)cc1 [Compound 8, 2-(4-(2-(2-hydroxyethoxy)propan-2-yl)phenyl)-3,5,7,8-tetrahydro-4H-thiopyrano[4,3-d]pyrimidin-4-one]
- average distance between opposing cartilage endplates (elastic cartilage): 2-3 mm
- average cartilage growth upon closure of the wound (elastic cartilage): 5.5-6 mm
- average cartilage tissue regrowth (elastic cartilage): 68-75%
- cartilage regeneration by histology (elastic cartilage): newly formed chondrocytes are more numerous and larger than in the control

Compound: O=c1[nH]c(-c2ccc(-c3ccc(B(O)O)cc3)cc2)nc2c1CSCC2 [Compound 10, (4′-(4-oxo-3,5,7,8-tetrahydro-4H-thiopyrano[4,3-d]pyrimidin-2-yl)-[1,1′-biphenyl]-4-yl)boronic acid]
- wound healing integrity (physical properties of the healed wound site) (healed wound sites): greatest wound healing integrity
- number of wounds indicating collagen infiltration into the scar (closed excisional wounds): 7 wounds

Compound: COC(=O)NCCOC(C)(C)c1ccc(-c2nc3c(c(=O)[nH]2)CSCC3)cc1 [Compound 18, methyl (2-((2-(4-(4-oxo-3,5,7,8-tetrahydro-4H-thiopyrano[4,3-d]pyrimidin-2-yl)phenyl)propan-2-yl)oxy)ethyl)carbamate]
- Average result ([1]; 24 h): 10.7 × 10^4
- Log Reduction ([1]; 24 h): 0.7
- Log Value ([1]; 24 h): 4.2
- Average result ([1]; 72 h): 6.5 × 10^3
- Log Reduction ([1]; 72 h): 1.1
- Log Value ([1]; 72 h): 3.8
- average distance between opposing cartilage endplates (elastic cartilage): 2-3 mm
- average cartilage growth upon closure of the wound (elastic cartilage): 5.5-6 mm
- average cartilage tissue regrowth (elastic cartilage): 68-75%
- cartilage regeneration by histology (elastic cartilage): newly formed chondrocytes are more numerous and larger than in the control

— US20260356860A1, “2-SUBSTITUTED 3,4A,5,7,8,8A-HEXAHYDRO-4H-THIOPYRANO[4,3-DJPYRIMIDIN-4-ONES FOR WOUND TREATMENT” (priority 2022, published 2026)
